The values that follow are results of earlier work, collected in patent publication US6768024B1, “Triamine derivative melanocortin receptor ligands and methods of using same” (Lion Bioscience AG, priority 2000, dated 2004).

The subject of one data set is human subjects. The following applies: pilot phase I.
Another data set relates to rats. Particulars: IP, ICV.
A further data set relates to rodent models. The following applies: normal, Zucker fatty and diet-induced obesity rodent models.

In the case of MELANOTAN-II, the penile erections result with human subjects is listed as “cause penile erections”.

Regarding “Ac-Nle-Gln-His-(D)-Phe-Arg-(D)-Trp-Gly-NH2 [HP228]”, in the data set with rats, the “hypophagia and weight loss” value was “notable hypophagia and weight loss”.

For the compound `CC(C)CC(N(C)C)C1(c2ccc(Cl)cc2)CCC1` (stereo not drawn) [Sibutramine], in the data set on rodent models, the body weight entry is “lower body weight”.
